Usually IC50 stands for the concentration that inhibits the measured activity by half.

Consider 35 compounds from ChEMBL document CHEMBL3352260, “Identification and development of biphenyl substituted iminosugars as improved dual glucosylceramide synthase/neutral glucosylceramidase inhibitors” (J Med Chem, 2014).

The target of test [1] is T1, Lysosomal acid glucosylceramidase (Homo sapiens, UniProt P04062).
T1 sequence (P04062 whole entry): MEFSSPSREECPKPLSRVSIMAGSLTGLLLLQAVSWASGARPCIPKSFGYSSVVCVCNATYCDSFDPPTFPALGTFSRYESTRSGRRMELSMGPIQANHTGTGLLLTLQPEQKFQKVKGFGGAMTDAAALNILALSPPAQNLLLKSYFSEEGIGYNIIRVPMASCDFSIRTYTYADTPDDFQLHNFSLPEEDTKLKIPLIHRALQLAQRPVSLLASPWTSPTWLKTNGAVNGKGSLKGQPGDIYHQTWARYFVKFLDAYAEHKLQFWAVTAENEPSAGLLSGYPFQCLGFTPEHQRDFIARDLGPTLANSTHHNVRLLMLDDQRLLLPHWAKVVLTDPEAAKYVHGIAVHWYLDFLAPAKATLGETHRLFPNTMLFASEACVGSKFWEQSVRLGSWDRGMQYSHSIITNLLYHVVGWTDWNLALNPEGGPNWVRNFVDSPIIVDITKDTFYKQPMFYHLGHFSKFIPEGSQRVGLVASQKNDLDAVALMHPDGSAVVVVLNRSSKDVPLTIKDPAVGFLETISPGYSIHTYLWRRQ

Test [2] concerns the target T2, Ceramide glucosyltransferase (Homo sapiens, UniProt Q16739).
T2 sequence (Q16739 whole entry): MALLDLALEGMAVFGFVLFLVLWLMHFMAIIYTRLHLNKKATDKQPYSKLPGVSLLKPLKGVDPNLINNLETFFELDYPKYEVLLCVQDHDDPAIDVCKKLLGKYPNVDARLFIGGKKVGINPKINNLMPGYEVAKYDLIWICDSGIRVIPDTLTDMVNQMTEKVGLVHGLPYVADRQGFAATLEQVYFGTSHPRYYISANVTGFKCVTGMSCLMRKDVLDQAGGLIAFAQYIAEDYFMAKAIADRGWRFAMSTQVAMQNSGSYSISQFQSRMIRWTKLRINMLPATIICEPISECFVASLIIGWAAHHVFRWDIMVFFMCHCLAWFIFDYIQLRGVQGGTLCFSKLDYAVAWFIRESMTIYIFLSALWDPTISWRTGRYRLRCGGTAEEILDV

Another test deals with T3, Beta-glucosidase (Homo sapiens, UniProt Q9HCG7).
T3 sequence (Q9HCG7 whole entry): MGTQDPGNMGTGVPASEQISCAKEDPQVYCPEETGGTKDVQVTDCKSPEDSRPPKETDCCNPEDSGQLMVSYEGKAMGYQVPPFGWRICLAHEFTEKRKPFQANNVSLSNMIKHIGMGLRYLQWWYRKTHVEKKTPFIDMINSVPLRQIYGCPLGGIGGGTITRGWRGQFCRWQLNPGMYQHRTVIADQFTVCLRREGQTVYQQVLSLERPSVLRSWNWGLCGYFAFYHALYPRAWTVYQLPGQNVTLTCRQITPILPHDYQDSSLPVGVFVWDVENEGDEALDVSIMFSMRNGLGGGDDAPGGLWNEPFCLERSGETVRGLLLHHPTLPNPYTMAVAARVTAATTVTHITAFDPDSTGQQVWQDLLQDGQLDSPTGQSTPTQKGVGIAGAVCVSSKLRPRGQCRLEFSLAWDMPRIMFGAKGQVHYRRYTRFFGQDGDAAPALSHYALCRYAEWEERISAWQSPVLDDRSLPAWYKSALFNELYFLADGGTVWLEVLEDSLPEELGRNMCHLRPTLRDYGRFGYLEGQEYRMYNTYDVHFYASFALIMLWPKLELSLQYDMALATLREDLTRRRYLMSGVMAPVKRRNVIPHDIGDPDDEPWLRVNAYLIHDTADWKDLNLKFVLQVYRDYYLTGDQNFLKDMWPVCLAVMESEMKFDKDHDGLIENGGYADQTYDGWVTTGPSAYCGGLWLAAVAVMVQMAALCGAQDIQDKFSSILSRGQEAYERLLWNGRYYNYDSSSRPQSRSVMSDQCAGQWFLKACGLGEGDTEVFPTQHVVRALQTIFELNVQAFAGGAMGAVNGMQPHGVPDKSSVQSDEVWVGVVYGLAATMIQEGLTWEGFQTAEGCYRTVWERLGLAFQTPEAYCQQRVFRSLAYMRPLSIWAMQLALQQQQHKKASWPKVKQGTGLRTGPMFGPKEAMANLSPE

A further test has as its target Maltase-glucoamylase (Homo sapiens, UniProt O43451). As to the kind of experiment: Inhibition of intestinal maltase (unknown origin).
The target in test [3] is Sucrase-isomaltase, intestinal (Homo sapiens, UniProt P14410). As to the kind of experiment: Inhibition of intestinal sucrase (unknown origin).
Test [4] deals with Lactase/phlorizin hydrolase (Homo sapiens, UniProt P09848). The test can be described thus: Inhibition of intestinal lactase (unknown origin).
Chain of Lactase/phlorizin hydrolase (P09848 869-1927 limits assumed): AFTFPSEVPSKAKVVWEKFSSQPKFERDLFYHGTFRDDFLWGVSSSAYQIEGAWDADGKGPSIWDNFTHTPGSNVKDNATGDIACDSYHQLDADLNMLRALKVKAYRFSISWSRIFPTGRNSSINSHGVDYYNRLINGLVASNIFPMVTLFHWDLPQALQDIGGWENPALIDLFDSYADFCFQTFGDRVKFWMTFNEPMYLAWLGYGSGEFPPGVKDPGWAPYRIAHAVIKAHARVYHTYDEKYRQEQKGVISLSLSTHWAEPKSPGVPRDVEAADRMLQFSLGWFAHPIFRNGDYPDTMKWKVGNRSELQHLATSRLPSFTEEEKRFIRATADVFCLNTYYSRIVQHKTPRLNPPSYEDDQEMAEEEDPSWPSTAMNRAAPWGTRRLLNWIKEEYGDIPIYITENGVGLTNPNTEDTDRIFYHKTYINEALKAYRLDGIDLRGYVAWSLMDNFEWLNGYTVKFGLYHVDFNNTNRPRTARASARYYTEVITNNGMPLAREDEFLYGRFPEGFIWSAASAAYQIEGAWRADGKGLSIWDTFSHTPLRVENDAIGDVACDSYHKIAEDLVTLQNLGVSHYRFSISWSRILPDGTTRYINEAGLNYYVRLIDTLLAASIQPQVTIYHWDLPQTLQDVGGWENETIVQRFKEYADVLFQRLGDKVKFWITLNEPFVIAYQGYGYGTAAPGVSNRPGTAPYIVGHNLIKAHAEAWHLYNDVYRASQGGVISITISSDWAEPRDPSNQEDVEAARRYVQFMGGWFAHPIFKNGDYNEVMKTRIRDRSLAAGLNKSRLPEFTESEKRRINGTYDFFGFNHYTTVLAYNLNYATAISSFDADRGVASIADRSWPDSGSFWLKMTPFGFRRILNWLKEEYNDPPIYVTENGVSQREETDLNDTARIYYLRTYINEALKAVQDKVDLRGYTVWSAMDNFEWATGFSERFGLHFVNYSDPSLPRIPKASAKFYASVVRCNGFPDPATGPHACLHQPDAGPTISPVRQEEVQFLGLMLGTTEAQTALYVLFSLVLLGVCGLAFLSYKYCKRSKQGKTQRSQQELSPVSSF

Chain of Maltase-glucoamylase (O43451 whole entry): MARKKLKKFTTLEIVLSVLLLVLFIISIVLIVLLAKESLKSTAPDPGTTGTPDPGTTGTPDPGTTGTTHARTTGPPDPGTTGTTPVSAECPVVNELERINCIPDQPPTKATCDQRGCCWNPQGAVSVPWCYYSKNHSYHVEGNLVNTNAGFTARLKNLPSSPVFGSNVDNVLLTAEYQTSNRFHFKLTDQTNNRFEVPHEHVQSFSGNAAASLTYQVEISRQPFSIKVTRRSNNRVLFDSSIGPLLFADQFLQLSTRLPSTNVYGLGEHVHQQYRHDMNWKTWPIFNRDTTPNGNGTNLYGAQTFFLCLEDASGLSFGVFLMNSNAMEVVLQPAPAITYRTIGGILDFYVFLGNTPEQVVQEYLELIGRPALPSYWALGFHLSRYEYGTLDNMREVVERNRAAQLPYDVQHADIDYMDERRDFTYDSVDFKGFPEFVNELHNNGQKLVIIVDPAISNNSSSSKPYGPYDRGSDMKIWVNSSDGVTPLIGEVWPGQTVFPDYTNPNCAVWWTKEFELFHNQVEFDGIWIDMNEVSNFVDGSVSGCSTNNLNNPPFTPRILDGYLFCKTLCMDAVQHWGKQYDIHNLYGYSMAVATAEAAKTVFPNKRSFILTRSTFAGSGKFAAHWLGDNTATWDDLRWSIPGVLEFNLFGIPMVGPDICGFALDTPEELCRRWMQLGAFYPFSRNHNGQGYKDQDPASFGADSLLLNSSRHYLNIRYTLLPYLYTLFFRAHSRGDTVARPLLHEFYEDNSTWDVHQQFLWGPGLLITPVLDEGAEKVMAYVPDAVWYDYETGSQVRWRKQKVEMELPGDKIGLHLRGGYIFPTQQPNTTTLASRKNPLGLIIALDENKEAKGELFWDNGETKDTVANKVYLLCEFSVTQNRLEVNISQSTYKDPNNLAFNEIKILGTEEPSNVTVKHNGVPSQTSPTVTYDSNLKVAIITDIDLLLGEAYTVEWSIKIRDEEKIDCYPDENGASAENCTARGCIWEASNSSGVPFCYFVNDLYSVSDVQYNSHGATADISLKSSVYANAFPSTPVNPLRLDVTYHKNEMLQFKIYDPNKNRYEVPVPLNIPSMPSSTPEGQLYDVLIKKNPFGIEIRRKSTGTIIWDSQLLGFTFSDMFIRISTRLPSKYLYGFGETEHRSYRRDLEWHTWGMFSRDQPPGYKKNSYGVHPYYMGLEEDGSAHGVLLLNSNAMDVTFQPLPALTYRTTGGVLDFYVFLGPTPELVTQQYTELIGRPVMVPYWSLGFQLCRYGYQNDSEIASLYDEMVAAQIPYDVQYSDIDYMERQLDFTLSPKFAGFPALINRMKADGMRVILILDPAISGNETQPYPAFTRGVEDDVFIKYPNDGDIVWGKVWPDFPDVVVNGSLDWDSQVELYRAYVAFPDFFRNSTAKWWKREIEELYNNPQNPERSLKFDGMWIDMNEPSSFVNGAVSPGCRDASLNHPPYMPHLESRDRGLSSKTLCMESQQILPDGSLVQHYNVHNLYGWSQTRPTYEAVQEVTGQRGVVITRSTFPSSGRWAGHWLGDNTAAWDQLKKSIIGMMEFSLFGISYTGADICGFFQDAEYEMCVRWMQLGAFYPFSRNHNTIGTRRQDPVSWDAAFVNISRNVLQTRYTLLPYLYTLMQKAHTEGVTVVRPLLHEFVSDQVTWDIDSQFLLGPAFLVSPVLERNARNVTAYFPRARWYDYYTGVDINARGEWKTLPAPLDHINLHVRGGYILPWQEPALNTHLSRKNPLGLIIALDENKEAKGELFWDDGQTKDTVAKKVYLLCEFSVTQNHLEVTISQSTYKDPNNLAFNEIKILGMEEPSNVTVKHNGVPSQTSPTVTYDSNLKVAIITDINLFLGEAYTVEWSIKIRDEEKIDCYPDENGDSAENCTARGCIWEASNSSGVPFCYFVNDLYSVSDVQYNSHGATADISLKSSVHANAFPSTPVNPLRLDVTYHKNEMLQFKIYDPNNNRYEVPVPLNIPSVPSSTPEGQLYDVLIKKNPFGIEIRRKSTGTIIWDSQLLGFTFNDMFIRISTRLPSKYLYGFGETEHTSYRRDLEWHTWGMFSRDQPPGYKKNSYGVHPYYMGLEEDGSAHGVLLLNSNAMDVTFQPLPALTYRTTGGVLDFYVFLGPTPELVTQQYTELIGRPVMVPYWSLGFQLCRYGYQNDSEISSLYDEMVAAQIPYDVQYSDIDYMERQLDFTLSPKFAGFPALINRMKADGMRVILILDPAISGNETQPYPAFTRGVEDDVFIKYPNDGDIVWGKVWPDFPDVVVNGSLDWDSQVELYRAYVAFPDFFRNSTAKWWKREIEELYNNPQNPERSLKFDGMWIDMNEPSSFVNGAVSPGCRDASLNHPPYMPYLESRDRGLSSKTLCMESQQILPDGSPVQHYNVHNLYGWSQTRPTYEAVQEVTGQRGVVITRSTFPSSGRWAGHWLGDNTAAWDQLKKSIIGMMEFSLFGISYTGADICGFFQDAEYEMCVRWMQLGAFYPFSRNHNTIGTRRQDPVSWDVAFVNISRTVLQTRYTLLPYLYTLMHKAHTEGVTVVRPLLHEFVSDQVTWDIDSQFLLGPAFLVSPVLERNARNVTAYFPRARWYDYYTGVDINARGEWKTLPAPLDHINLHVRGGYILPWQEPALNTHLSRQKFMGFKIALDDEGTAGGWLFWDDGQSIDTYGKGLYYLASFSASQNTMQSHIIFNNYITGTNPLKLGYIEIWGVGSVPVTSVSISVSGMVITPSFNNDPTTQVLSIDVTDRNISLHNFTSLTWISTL

On to `O=C(CCCCCN1C[C@H](O)[C@@H](O)[C@H](O)[C@H]1CO)NC12CC3CC(CC(C3)C1)C2`, for which the IC50 in test [1] came out at 500 nM; in test [2], 1000 nM; against Beta-glucosidase, 9 nM.

Turning to `OC[C@@H]1[C@@H](O)[C@H](O)[C@@H](O)CN1CCCCCOCC1CCCCC1`, the IC50 in test [1] was 1500 nM; in test [2], 500 nM; on Beta-glucosidase, 4 nM.

Consider `OC[C@@H]1[C@@H](O)[C@H](O)[C@@H](O)CN1CCCCCCOCC12CC3CC(CC(C3)C1)C2`, for which the values for the IC50 (in test [1]; in test [2]; against Beta-glucosidase) were 200 nM, 300 nM and 2 nM, respectively.

Take `CC(C)CCC[C@@H](C)[C@H]1CC[C@H]2[C@@H]3CC=C4C[C@@H](OCCCCCN5C[C@H](O)[C@@H](O)[C@H](O)[C@H]5CO)CC[C@]4(C)[C@H]3CC[C@]12C`: the results for the IC50 (in test [1]; in test [2]; on Beta-glucosidase) were 500 nM, 1000 nM and 5 nM, respectively.

`OC[C@@H]1[C@@H](O)[C@H](O)[C@@H](O)CN1CCCCCOCC1C2CC3CC(C2)CC1C3` (some centres not stated): the IC50 in test [1] was 400 nM; in test [2] it was 300 nM; against Beta-glucosidase, 1 nM.

For `OC[C@@H]1[C@@H](O)[C@H](O)[C@@H](O)CN1CCCCCOCc1ccccc1`, the IC50 in test [1] was found to be 300 nM; in test [2], 750 nM; at Beta-glucosidase, 1 nM.

Consider `OC[C@@H]1[C@@H](O)[C@H](O)[C@@H](O)CN1CCCCCOCc1ccc2ccccc2c1`, for which the IC50 in test [1] turned out to be 1000 nM; in test [2], 3 nM; against Beta-glucosidase, 1 nM.

With `OC[C@@H]1[C@@H](O)[C@H](O)[C@@H](O)CN1CCCCCOCc1ccc2ccc3cccc4ccc1c2c34`, the IC50 was determined as 500 nM in test [1], 3 nM in test [2] and 3 nM at Beta-glucosidase.

In the case of `OC[C@@H]1[C@@H](O)[C@H](O)[C@@H](O)CN1CCCCCOCc1ccc(-c2ccccc2)cc1`, the IC50 was determined as 2000 nM against Maltase-glucoamylase and 250 nM in test [3].

As to `OC[C@H]1[C@@H](O)[C@H](O)[C@@H](O)CN1CCCCCOCC1CCCCC1`, the IC50 turned out to be 60000 nM in test [1], 70 nM in test [2] and 6 nM against Beta-glucosidase.

As for `O=C(CCCCCN1C[C@H](O)[C@@H](O)[C@H](O)[C@@H]1CO)NC12CC3CC(CC(C3)C1)C2`, the IC50 in test [1] is 40000 nM; in test [2] it was 400 nM; on Beta-glucosidase it was 15 nM.

Take `OC[C@H]1[C@@H](O)[C@H](O)[C@@H](O)CN1CCCCCCOCC12CC3CC(CC(C3)C1)C2`: the IC50 in test [1] was 5000 nM; in test [2], 250 nM; against Beta-glucosidase, 2.5 nM.

Turning to `CC(C)CCC[C@@H](C)[C@H]1CC[C@H]2[C@@H]3CC=C4C[C@@H](OCCCCCN5C[C@H](O)[C@@H](O)[C@H](O)[C@@H]5CO)CC[C@]4(C)[C@H]3CC[C@]12C`, the values for the IC50 (in test [1]; in test [2]; on Beta-glucosidase) were 15000 nM, 1000 nM and 20 nM, respectively.

With `OC[C@H]1[C@@H](O)[C@H](O)[C@@H](O)CN1CCCCCOCC1C2CC3CC(C2)CC1C3` (some centres not stated), the results for the IC50 (in test [1]; in test [2]; at Beta-glucosidase) were 10000 nM, 80 nM and 2 nM, respectively.

As to `CC(C)=CCC/C(C)=C/CC/C(C)=C/CCOCCCCCN1C[C@H](O)[C@@H](O)[C@H](O)[C@@H]1CO`, the IC50 came to 50000 nM in test [1], 2500 nM in test [2] and 100 nM against Beta-glucosidase.

`OC[C@H]1[C@@H](O)[C@H](O)[C@@H](O)CN1CCCCCOCc1ccccc1`: the IC50 was found to be 10000 nM in test [1], 200 nM in test [2] and 3 nM against Beta-glucosidase.

Consider `OC[C@H]1[C@@H](O)[C@H](O)[C@@H](O)CN1CCCCCOCc1ccc2ccccc2c1`, for which the IC50 in test [1] is 50000 nM; in test [2] it was 3 nM; on Beta-glucosidase, 1 nM.

`OC[C@H]1[C@@H](O)[C@H](O)[C@@H](O)CN1CCCCCOCc1ccc2ccc3cccc4ccc1c2c34`: the results for the IC50 (in test [1]; in test [2]; against Beta-glucosidase) were 15000 nM, 3 nM and 1 nM, respectively.

With `OC[C@H]1[C@@H](O)[C@H](O)[C@@H](O)CN1CCCCCOCc1ccc(-c2ccccc2)cc1`, the results for the IC50 (on Maltase-glucoamylase; in test [3]) were > 100000 nM and 70000 nM, respectively.

In turn, `COc1ccccc1-c1ccc(COCCCCCN2C[C@H](O)[C@@H](O)[C@H](O)[C@H]2CO)cc1` came in with an IC50 against Beta-glucosidase of 3 nM.

Take `OC[C@@H]1[C@@H](O)[C@H](O)[C@@H](O)CN1CCCCCOCc1ccc(-c2cccc(F)c2)cc1`: half-maximal inhibition on Beta-glucosidase (IC50) required 1 nM. This IC50 is about 3-fold lower than that of the compound before.

`OC[C@@H]1[C@@H](O)[C@H](O)[C@@H](O)CN1CCCCCOCc1ccc(-c2ccccc2F)cc1` yielded an IC50 in test [2] of 75 nM.

With `OC[C@@H]1[C@@H](O)[C@H](O)[C@@H](O)CN1CCCCCOCc1ccc(-c2ccc3c(c2)OCO3)cc1`, the IC50 turned out to be 500 nM in test [1] and 2 nM against Beta-glucosidase.

For `OC[C@@H]1[C@@H](O)[C@H](O)[C@@H](O)CN1CCCCCOCc1ccc(-c2ccc3c(c2)OCCO3)cc1`, the IC50 in test [1] turned out to be 250 nM; in test [2], 40 nM; on Beta-glucosidase, 30 nM.

On Beta-glucosidase, `OC[C@@H]1[C@@H](O)[C@H](O)[C@@H](O)CN1CCCCCOCc1ccc(-c2ccc3c(c2)OCCCO3)cc1` showed an IC50 of 15 nM. This lies in the double-digit nanomolar range.

Regarding `OC[C@@H]1[C@@H](O)[C@H](O)[C@@H](O)CN1CCCCCOCc1ccc(-c2cccnc2)cc1`, in test [2], the IC50 is 2000 nM.

As for `OC[C@@H]1[C@@H](O)[C@H](O)[C@@H](O)CN1CCCCCOCc1ccc(-c2cncnc2)cc1`, the IC50 in test [1] came out at 10000 nM; in test [2], 2000 nM; against Beta-glucosidase, 25 nM.

`OC[C@@H]1[C@@H](O)[C@H](O)[C@@H](O)CN1CCCCCOCc1ccccc1-c1ccccc1`: the IC50 is 1500 nM at Maltase-glucoamylase, 17000 nM in test [4] and 200 nM in test [3].

For the compound `OC[C@@H]1[C@@H](O)[C@H](O)[C@@H](O)CN1CCCCCOCc1cccc(-c2ccccc2)c1`, the values for the IC50 (on Maltase-glucoamylase; in test [4]; in test [3]) were 1500 nM, 20000 nM and 200 nM, respectively.

In the case of `OC[C@@H]1[C@@H](O)[C@H](O)[C@@H](O)CN1CCCCCOCc1ccc(-c2ccccc2)cc1C(F)(F)F`, the IC50 against Maltase-glucoamylase worked out at 8000 nM; in test [4], 50000 nM; in test [3] it was 1500 nM.

`C[C@H](OCCCCCN1C[C@H](O)[C@@H](O)[C@H](O)[C@@H]1CO)c1ccc(-c2ccccc2)cc1`: the IC50 (on Maltase-glucoamylase; in test [4]; in test [3]) was > 100000 nM throughout.

With `C[C@@H](OCCCCCN1C[C@H](O)[C@@H](O)[C@H](O)[C@@H]1CO)c1ccc(-c2ccccc2)cc1`, the IC50 at Maltase-glucoamylase was > 100000 nM; in test [4], 45000 nM; in test [3], > 100000 nM.

As to `OC[C@H]1[C@@H](O)[C@H](O)[C@@H](O)CN1CCCCCOCc1ccccc1-c1ccccc1`, the IC50 on Maltase-glucoamylase was > 100000 nM; in test [4] it was 25000 nM; in test [3] it was 95000 nM.

Consider `OC[C@H]1[C@@H](O)[C@H](O)[C@@H](O)CN1CCCC(F)(F)COCc1ccc(-c2ccccc2)cc1`, for which the values for the IC50 (against Maltase-glucoamylase; in test [4]; in test [3]) were > 100000 nM, 80000 nM and > 100000 nM, respectively.

As for `OC[C@H]1[C@@H](O)[C@H](O)[C@@H](O)CN1CCCCCOCc1ccc(-c2ccccc2)cc1C(F)(F)F`, the IC50 at Maltase-glucoamylase is > 100000 nM; in test [4], 125000 nM; in test [3], > 100000 nM.
